Measured values from patent US7094899B2, “Vitreous form of known bradykinin antagonist” (Astellas Pharma Inc., priority 1998, dated 2006).

What was measured:
[1] = background art statement; cited from earlier work
[2] = Solubility test (JP XIII dissolution test, paddle method); assay type: physicochemical; conditions: 900 ml distilled water, paddle 50 rpm; compared with crystal types A, B, C and mixture A+C of FR173657 hydrate (FIG. 6)
Description: A solubility test was performed in conformity with the Japanese Pharmacopoeia(JP) XIII dissolution test, paddle method. As the test solution, 900 ml of distilled water was used. The paddle speed was set to 50 rpm. The vitreous form of FR173657 ([…]) was added to the test solution and 10 ml aliquots of the test solution were taken as samples in each measurement. Each sample was filtered through a 0.45 μm filter and analyzed by high-performance liquid chromatography.
As a control, crystal type A, crystal type B, crystal type C and a mixture of crystal types A and C of FR173657 hydrate were used.

[3] = Stability test of the vitreous form milled mechanically; assay type: physicochemical
[4] = 25° C. Relative humidity: 60%, 3 Months
[5] = 30° C. Relative humidity: 75%, 3 Months
[6] = 40° C. Relative humidity: 75%, 3 Months

CC(=O)Nc1ccc(/C=C/C(=O)NCC(=O)N(C)c2ccc(Cl)c(COc3cccc4ccc(C)nc34)c2Cl)cn1 [amorphous form, 8-[3-[N-[(E)-3-(6-acetamidopyridin-3-yl)acryloylglycyl]-N-methylamino]-2,6-dichlorobenzyloxy]-2-methylquinoline]
Solid stability [1]: poor

CC(=O)Nc1ccc(/C=C/C(=O)NCC(=O)N(C)c2ccc(Cl)c(COc3cccc4ccc(C)nc34)c2Cl)cn1 [vitreous form of FR173657, 8-[3-[N-[(E)-3-(6-acetamidopyridin-3-yl)acryloylglycyl]-N-methylamino]-2,6-dichlorobenzyloxy]-2-methylquinoline]
Solubility [2]: higher solubility | Appearance [3, 4]: Pale | Form DSC [3, 4]: Vitreous | Form Powder X-ray [3, 4]: Vitreous | Residual (%) [3, 4]: 102.1% | Appearance [3, 5]: Pale | Form DSC [3, 5]: Vitreous | Form Powder X-ray [3, 5]: Vitreous | Residual (%) [3, 5]: 102.1% | Appearance [3, 6]: Pale | Form DSC [3, 6]: Vitreous | Form Powder X-ray [3, 6]: Vitreous | Residual (%) [3, 6]: 101.2% | Appearance ([3]; 40° C., 3 Months): Pale | Form DSC ([3]; 40° C., 3 Months): Vitreous | Form Powder X-ray ([3]; 40° C., 3 Months): Vitreous | Residual (%) ([3]; 40° C., 3 Months): 100.8% | Appearance ([3]; 50° C., 3 Months): Pale | Form DSC ([3]; 50° C., 3 Months): Vitreous | Form Powder X-ray ([3]; 50° C., 3 Months): Vitreous | Residual (%) ([3]; 50° C., 3 Months): 101.0% | Appearance ([3]; Initial): Pale | Form DSC ([3]; Initial): Vitreous | Form Powder X-ray ([3]; Initial): Vitreous | Residual (%) ([3]; Initial): 100.0% | Stability (crystallization / decomposition) ([3]; under heat, in moisture, through physical treatment, long-term storage): neither crystallizes nor decomposes at all
